Patent US11420967B2 (priority 2018, dated 2022)
Where two headings read alike, the source gives them in different places.

Tested on: T98G cells
Experiment: Antitumor activity in T98G cells in culture (WST-1 cell viability)
Format: cell-based, human
Settings: for EC50: WST-1, 72 hours after treatment, read-out: EC50; for increase in EC50 value relative to compound 8: compared with 8 (87 nM); for Emax: read-out: maximal efficacy at killing T98G cells
Procedure: Unless otherwise noted, maximal efficacies were measured at 10 μM. Data are the mean of at least three independent experiments performed in triplicate.
Cell culture. Cells were cultured in DMEM supplemented with 10% FBS, 100 U/mL penicillin, and 100 μg/mL streptomycin at 37° C. in a 5% CO2 humidified atmosphere. T98G and HepG2 cells (ATCC, Manassas, Va.) were authenticated by ATCC when purchased using human short tandem repeat analysis and maintained in culture for less than 6 months. Tumors were obtained from surgeries performed at the Swedish Medical Center (Seattle, Wash.) according to Institutional Review Board guidelines. Patient samples used in this study were diagnosed as WHO grade IV glioblastoma multiforme. Patient-derived GBM cells were established from the freshly resected tumor tissues and maintained in NeuroCult® NSA medium (Stem Cell Technologies) with B-27 serum-free supplement, 20 ng/mL epidermal growth factor and 20 ng/mL fibroblast growth factor 2 as previously described.
Cell viability. […] Maximal % killing was calculated as the % reduction in cell viability measured at all drug concentration. EC50 values were calculated and reported only when a curve was reliably extrapolated by Prism software. The solvent for all modified carbazoles was DMSO (0.1% final).

[1] = Homo sapiens, T98G cells, rounded values of the discussion
[2] = Homo sapiens, T98G, T98G cells, rounded values of the discussion

| SMILES | EC50 (Homo sapiens, T98G cells) [µM] | antitumor activity in T98G cells (in words) (T98G cells) | effect on T98G cell viability (in words) (T98G cells) | maximal killing (% ± SEM) (T98G cells, at 10 μM, 72 hours) [%] | increase in EC50 value relative to compound 8 (T98G cells) | Emax [1] [%] | other results |
| --- | --- | --- | --- | --- | --- | --- | --- |
| CCCn1c2ccccc2c2cc(C(=O)c3ccc(C)c4ccccc34)ccc21 [Compound 16, 9-propyl-3-[(4-methylnaphthalen-1-yl)carbonyl]-9H-carbazole] | > 10 | only active at concentrations above five micromolar | did not affect T98G cell viability significantly | 16.3 | 115 fold | – | – |
| CCn1c2ccccc2c2cc(C(=O)c3ccc(C)cc3)ccc21 [Compound 12, 9-ethyl-3-(4-methylbenzoyl)-9H-carbazole] | 0.993 | – | – | – | 11 fold | 84 | maximal killing (% ± SEM) (T98G cells, at 3 μM, 72 hours): 83.6% |
| COc1ccc(/C=C\c2cc(OC)c(OC)c(OC)c2)cc1O [combretastatin A-4, reference compound] | – | – | – | – | – | – | EC50 (T98G cells): 0.0006 µM; maximal killing (T98G cells, at 10 nM, 72 hours): 30.4%±2.1 |
| CCn1c2ccccc2c2cc(C(=O)c3ccc(F)cc3)ccc21 [Compound 11, 9-ethyl-3-(4-fluorobenzoyl)-9H-carbazole] | 8 | – | – | 54.8 | – | 55 | – |
| CCn1c2ccccc2c2cc(C(=O)N3CCN(C)CC3)ccc21 [Compound 9, 9-ethyl-3-(4-methylpiperazine-1-carbonyl)-9H-carbazole] | > 10 | only active at concentrations above five micromolar | did not affect T98G cell viability significantly | 13.2 | – | – | – |
| Cc1ccc(C(=O)n2c3ccccc3c3ccccc32)c2ccccc12 [Compound 28, 9-(4-methylnaphthalene-1-carbonyl)-9H-carbazole] | 0.957 | – | – | 89.1 | – | 89 | – |
| CCn1c2ccccc2c2cc(C(=O)c3cccc4ccccc34)ccc21 [Compound 14, 9-ethyl-3-(naphthalene-1-carbonyl)-9H-carbazole] | 1.7 | – | – | 72.0 | 20 fold | – | Emax [2]: 72% |
| CCn1c2ccccc2c2cc(C(=O)c3cccc4c3NCCC4)ccc21 [Compound 24, 9-ethyl-3-(1,2,3,4-tetrahydroquinoline-8-carbonyl)-9H-carbazole] | > 10 | only active at concentrations above five micromolar | did not affect T98G cell viability significantly | – | – | – | maximal killing (% ± SEM) (T98G cells, at 100 nM, 72 hours): −18.0% |
| Cc1ccc(C(=O)c2ccc3c(c2)c2ccccc2n3CC(F)(F)F)c2ccccc12 [Compound 18, 3-(4-methylnaphthalene-1-carbonyl)-9-(2,2,2-trifluoroethyl)-9H-carbazole] | 5.6 | only active at concentrations above five micromolar | – | 35.6 | 64 fold | – | Emax [2]: 35 to 45%; maximal efficacy at killing T98G cells (T98G cells, rounded values of the discussion): 35% |
| CCn1c2ccccc2c2cc(C(=O)Cc3ccccc3)ccc21 [Compound 13, 1-(9-ethyl-9H-carbazol-3-yl)-2-phenylethan-1-one] | > 10 | only active at concentrations above five micromolar | did not affect T98G cell viability significantly | – | more than 115 fold | – | maximal killing (% ± SEM) (T98G cells, at 3 μM, 72 hours): 14.0% |
| CCn1c2ccccc2c2cc(C(=O)c3cccc4cccnc34)ccc21 [Compound 22, 9-ethyl-3-(quinoline-8-carbonyl)-9H-carbazole] | 8.8 | – | – | 60.0 | – | 60 | reduction of maximal antitumor efficacy relative to compound 25: 96% |
| CCn1c2ccccc2c2cc(C(=O)c3ccc(Cl)cc3)ccc21 [Compound 10, 3-(4-chlorobenzoyl)-9-ethyl-9H-carbazole] | 1.5 | – | – | 71.1 | – | 61 | – |
